The values that follow come from BindingDB's records for doi:10.1021/cb300426u (University of St. Andrews, 2013).

Structures are written as SMILES. pIC50: −log10 of the molar value. Some results are limits rather than exact numbers.

In this assay the target is Glucose-1-phosphate thymidylyltransferase (Pseudomonas aeruginosa (strain ATCC 15692 / DSM 22644 / CIP 104116 / JCM 14847 / LMG 12228 / 1C / PRS 101 / PAO1), UniProt Q9HU22). In words: Inhibition Assay. The text has this: Inhibition assay using glucose-1-phosphate thymidylyltransferase (RmlA).
Chain of Glucose-1-phosphate thymidylyltransferase (Q9HU22 whole entry): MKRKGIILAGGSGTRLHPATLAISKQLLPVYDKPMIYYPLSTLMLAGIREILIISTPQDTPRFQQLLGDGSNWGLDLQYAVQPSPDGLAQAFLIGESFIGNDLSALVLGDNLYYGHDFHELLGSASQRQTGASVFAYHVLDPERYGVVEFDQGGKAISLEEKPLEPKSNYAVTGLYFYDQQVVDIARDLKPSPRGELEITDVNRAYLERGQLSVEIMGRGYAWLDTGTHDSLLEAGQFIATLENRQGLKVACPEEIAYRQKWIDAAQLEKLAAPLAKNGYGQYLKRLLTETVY
`CNc1c(N)n(Cc2ccccc2)c(=O)[nH]c1=O` [6-azanyl-5-(methylamino)-1-(phenylmethyl)pyrimidine-2,4-dione] showed a pIC50 of less than 4.22.
As to `CCCCn1c(N)c(N(C)S(=O)(=O)c2ccccc2)c(=O)[nH]c1=O` [Analogue of 1a, 1], the pIC50 was 6.68.
The result for `Nc1c(O)n(Cc2ccccc2)c(=O)[nH]c1=O` [Analogue of 1a, 2] reads 5.94; that for `CCCCn1c(N)c(N(C)C(=O)c2ccco2)c(=O)[nH]c1=O` [Analogue of 1a, 5], 5.23.
`CN(c1c(N)n(Cc2ccccc2)c(=O)[nH]c1=O)S(=O)(=O)c1ccccc1` [Analogue of 1a, 8a]: the pIC50 is 7.14. Against the preceding compound, the pIC50 is 1.91 log units higher.
`CCN(c1c(N)n(Cc2ccccc2)c(=O)[nH]c1=O)S(=O)(=O)c1ccccc1` [Analogue of 1a, 8b] showed a pIC50 of 6.99.
Regarding `CCCN(c1c(N)n(Cc2ccccc2)c(=O)[nH]c1=O)S(=O)(=O)c1ccccc1` [Analogue of 1a, 8c], the pIC50 is less than 5.00.
Turning to `CN(C(=O)c1ccccc1)c1c(N)n(Cc2ccccc2)c(=O)[nH]c1=O` [Analogue of 1a, 8f], the pIC50 is less than 4.22.
`CN(c1c(N)n(Cc2ccccc2)c(=O)[nH]c1=O)S(=O)(=O)c1ccco1` [Analogue of 1a, 8t] gave a pIC50 of 6.98.
Consider `Nc1c(NS(=O)(=O)c2ccccc2)c(=O)[nH]c(=O)n1Cc1ccccc1` [Analogue of 1a, 15a], for which the pIC50 was 5.88. This pIC50 is 1.10 log units lower than that of the compound before.
